Values quoted from earlier work in patent US10736894B2, “Methods of treating developmental syndromes with PDE10A inhibitors” (Ovid Therapeutics Inc., priority 2018, dated 2020).

Key:
[1] = 100 mg dose
[2] = single dose 3-1000 mg, volunteers

Structure (SMILES): COc1cn(-c2ccc(-n3cccn3)cc2F)nc(-c2ccnn2-c2ccccc2)c1=O [1-[2-fluoro-4-(1H-pyrazol-1-yl)phenyl]-5-methoxy-3-(1-phenyl-1H-pyrazol-5-yl)-pyridazin-4(1H)-one]
- oral bioavailability ([1]; fed conditions versus fasting): increased oral bioavailability
- Tmax ([1]; fed conditions): 6 h
- deaths, serious adverse events, discontinuations due to adverse events (all dose cohorts 3-1000 mg): no deaths, serious adverse events, or discontinuations due to adverse events
- drug-related adverse event: orthostatic hypotension [2]: 9.1%
- drug-related adverse event: orthostatic tachycardia [2]: 19.7%
- drug-related adverse event: somnolence [2]: 33.3%
